Legend:
intraocular pressure [1] = assay: IOP lowering in dexamethasone induced ocular hypertensive (OHT) mouse eyes; format: in vivo; settings: periocular once every week for 4 weeks, baseline 11.85 ± 2.27
Method: Mice (C57BL/6J, 12 weeks, n = 3–5) were anesthetized and the periocular injection of dexamethasone acetate (DEX-Ac, 10 mg/mL) or vehicle (20 μL) was administered immediately under the isoflurane over the course of 10 to 15 s. The procedure was performed in both eyes of each mice after it was numbed with proparacaine as reported previously. Mice were treated with DEX-Ac or vehicle once per week for four weeks to achieve the desired IOP elevation. Baseline IOP was measured using tonometer. […] The entire dosing schedule was repeated 3 times in each mouse eye. IOP plots were generated from IOP values obtained from the treated eyes.

[2] = Superoxide anion radical scavenging assay (pyrogallol/WST-1) in buffer; format: biochemical; settings: for AUC0–2.5 h of % superoxide scavenging response: 1 mM compound, pyrogallol 1 mM; for earliest time of superoxide (O2−) radical scavenging: buffer solution and TM cells; for superoxide radicals scavenged: dose response 1-1000 µM; for AUC0-15 of % superoxide scavenging response: different concentrations 1-1000 µM, 15 minutes time point
Method: (§1) The ROS scavenging ratio was determined using a chemical assay where WST-1 was used as superoxide scavenger produced by pyrogallol following a reported protocol. Briefly, the superoxide anion radical scavenging activity was determined spectrophotometrically by measuring the formation of WST-1 formazan at 450 nm. WST-1 (40 µL, 50 µM) was added to the compounds (or corresponding solution) in a final volume of 160 µL in 50 mM ammonium hydrogen carbonate buffer, 0.5 mM EDTA, pH 9.3. Reaction was launched by adding 40 µL 1 mM pyrogallol. The operation was based on the 96-well microplate, and measurement was performed at different time points under 37 °C by Cytation5 Microplate Reader. Baicalein (1 mM) was used as positive control. Compounds SA-2, SA-9, and SA-10 were used in concentrations ranging from 1 µM, 10 µM, 100 µM, and 1000 µM. The superoxide anion radical scavenging ratio % was calculated according to the following formula:Scavenging ratio (%) = A0 − (A1 − A2)/A0 × 100%

NTM-5 cells [3] = assay: Superoxide scavenging ratio in NTM-5 cell supernatant (pyrogallol assay), with or without TBHP; format: cell-based, human; settings: for AUC0-3h of superoxide scavenging ratio: NTM-5 cell supernatant, 18 h treatment, 0.1-1000 µM
Method: as §1, with “100% […]” for “100%”
(§2) The experiments were repeated twice with four technical replicates.
Figure 2 Superoxide scavenging ability of SA compounds in buffer and cells. (a) The % of superoxide scavenging response from 1 mM concentration of SA-2, SA-9, and SA-10 in pyrogallol (Pyr, 1 mM) induced superoxide induction assay at different time points in buffer. The AUC0–2.5 h for SA-2, SA-9, and SA-10 were 1592 ± 37.87, 1355 ± 42.62, and 2350 ± 69.26, respectively. (b) Comparison of the % ROS scavenging activity of SA-2, SA-9, and SA-10 with control after 15 min of treatment of pyrogallol. (c) The superoxide scavenging ratio (%) after 18 h treatment of 10 µM concentration of SA-2, SA-9, and SA-10 to NTM-5 cell supernatant using pyrogallol induced superoxide induction assay at different time points. (d) The superoxide scavenging ratio (%) of 10 µM concentration of SA-2, SA-9, and SA-10 in NTM-5 cell supernatant. The cells were previously treated with 5.5 mM of TBHP for 30 min followed by SA compounds and incubated for 18 h. Control is untreated cells. Three technical replicates were used for each experiment and all experiments were repeated 2 times. * p < 0.05, ** p < 0.005, *** p < 0.001, **** p < 0.0001, One-way ANOVA for (b), and two-way ANOVA for (c,d).
Figure S1: Superoxide scavenging ability of SA compounds in buffer and cells. a) The % of superoxide scavenging response from different concentrations of SA-2, SA-9 and SA-10 in pyrogallol (1 µM, 10 µM, 100 µM and 1,000 µM) induced superoxide induction assay at 15 minutes time point in buffer solution. The […]
superoxide scavenging ratio (%) after 18h treatment of different concentrations (0.1 µM, 1 µM, 10 µM, 100 µM and 1,000 µM) of SA-2, SA-9 and SA-10 to NTM-5 cell supernatant with or without TBHP (5.5 mM) using pyrogallol induced superoxide induction assay at 3h time point. Control is untreated cells. The cells were previously treated with 5.5 mM of TBHP for 30 minutes followed by SA compounds and TBHP and incubated for 18h. Control is untreated cells. e) The AUC0-3h for SA-2, SA-9 and SA-10 were 18902 ± 2714, […]
for each experiment and all experiments were repeated 2 times. N = 3.
(1 picture or pasted object on this page, not shown here)

NTM-5 cells [4] = assay: Total nitrite release by Griess assay in NTM-5 cell supernatant; format: cell-based, human; settings: for NO released in NTM-5 cell supernatants: 28 h at 37 °C; for start of NO release: buffer solution and TM cells
Method: (§3) The total nitrite released from the compounds in buffer and in cell supernatant were measured by Griess assay as reported by us previously. In brief, compounds (SA-2, SA-9, and SA-10) in buffer at different concentrations (1 mM, 500 µM, 250 µM 125 µM, 62.5 µM, 31.25 µM, and 15.625 µM) or supernatant collected from Human transformed trabecular meshwork (NTM-5) cells were added to a 96-well plate. 1% Sulphanilamide in 5% phosphoric acid and 0.1% N-1-napthylethylenediamine dihydrochloride (NED) were added to experimental samples sequentially at room temperature and away from light. SIN-1 was used as reference standard. UV Absorbances (Cytation 5) were measured at specific timepoints (0, 5 min, 10 min, 15 min, 30 min, 24 h, and 28 h) at 520 nm.
as §2

NTM-5 cells [5] = assay: In vitro cytoprotection assay against TBHP (MTT); format: cell-based; settings: Homo sapiens, TBHP 350 µM, read-out: EC50 of increase in cell viability (cytoprotection)
Method: After 24 h of treatment, cell proliferation was measured using MTT assay. All the experiments are done in duplicate with four experimental replicates.

NTM-5 cells [6] = assay: In vitro peroxynitrite measurement assay; format: cell-based, human; settings: 0.1 µM and 1 mM, with or without TBHP 350 µM
Method: Human transformed trabecular meshwork (NTM-5) cells (20,000 cells/well/90 µL) were seeded in 96-well plates (Griener bio-one black plate) and stained with 10 µL of 10X Peroxynitrite Sensor Green solution for 1 h. […] SIN-1 was used as a positive control. Detection of peroxynitrite was done using Peroxynitrite Assay Kit (abcam-ab233468-cell based). Fluorescence signals were measured using a microplate reader (Cytation5) at Ex/Em = 485/530 nm at time intervals (15 min, 30 min, 1 h, 2 h, and 3 h). The experiments were done in duplicates.

[7] = set-up: method as in PMID 26832784; settings: PBS 7.4; cited from earlier work
NTM-5 cells [8] = assay: In vitro cell viability (MTT) assay; settings: for cytotoxicity: NTM-5 cells, 24 h, up to 1000 µM
[9] = Hypochlorous acid (HOCl) radical scavenging assay (TNB) in buffer; format: biochemical
Method: This assay used the redox reaction between 5-thio-2-nitrobenzoic acid (TNB) and HOCl to form dithio-TNB. Using the method described previously, we assessed the % TNB remaining with or without treatment with SA compounds. Compounds SA-2, SA-9, and SA-10 were used in concentrations ranging from 0.1 µM, 1 µM, 10 µM, 100 µM, and 1000 µM. Lipoic acid (1 mM) was used as positive control.

[10] = Total nitrite/NO release by Griess assay in buffer (aqueous stability); format: physicochemical; settings: even after 3 days
Method: as §3, with “UV Absorbances (Cytation 5) were measured at specific timepoints (0, 5 min, 10 min, 15 min, 30 min, 24 h, and 28 h) at 520 nm.” left out

intraocular pressure [11] = test system: intraocular pressure; set-up: method as in PMID 8675417; settings: rabbit eyes, 20 mM, intraocular injection; cited from earlier work
intraocular pressure [12] = test system: intraocular pressure; set-up: method as in private communication, unpublished result; settings: monkey eyes; ref private communication, unpublished result; cited from earlier work

| SMILES | AUC0–2.5 h of % superoxide scavenging response ([2]; buffer) | earliest time of superoxide (O2−) radical scavenging [2] [min] | superoxide radicals scavenged ([2]; buffer) | AUC0-15 of % superoxide scavenging response ([2]; buffer) | AUC0-3h of superoxide scavenging ratio (NTM-5 cells [3]; with TBHP 5.5 mM) | AUC0-3h of superoxide scavenging ratio (NTM-5 cells [3]; without TBHP) | NO released in NTM-5 cell supernatants (NTM-5 cells [4]) | start of NO release (NTM-5 cells [4]) [h] | EC50 (NTM-5 cells [5]) [µM] | ONOO− radical formation (NTM-5 cells [6]) | cytotoxicity (NTM-5 cells [8]) | further results |
| --- | --- | --- | --- | --- | --- | --- | --- | --- | --- | --- | --- | --- |
| CC(=O)OCC(=O)[C@@]1(O)[C@H](C)C[C@H]2[C@@H]3CCC4=CC(=O)C=C[C@]4(C)[C@@]3(F)[C@@H](O)C[C@@]21C [Dexamethasone, dexamethasone acetate] | – | – | – | – | – | – | – | – | – | – | – | IOP after dexamethasone injection (intraocular pressure [1]): 21.9 ± 5.92 mm/Hg |
| CC1(C)CC([n+]2cc([NH-])on2)CC(C)(C)N1O [SA-2, reference compound] | 1592 ± 37.87 | 7 | 16–40% | 11604± 815.9 | 18285 ± 3960 | 18902 ± 2714 | dose dependently | > 24 | 5.2 | produced less | no cytotoxicity | half-life in PBS7.4 [7]: < 1 h |
| CC(C)(C)OO [TBHP, t-butyl hydrogen peroxide, reference compound] | – | – | – | – | – | – | – | – | – | – | – | EC50 (NTM-5 cells [8]; Homo sapiens, read-out: half-maximal effective concentration (EC50) dose of TBHP): 350 µM |
| Cl.[NH-]c1c[n+](C2CCS(=O)(=O)CC2)no1 [SA-10, (3-(1,1-dioxidotetrahydro-2H-thiopyran-4-yl)-1,2,3-oxadiazol-3-ium-5-yl) amide hydrochloride] | 2350 ± 69.26 | 7 | 16–40% | 20433± 3128 | 17893 ± 2714 | 21444 ± 1877 | dose dependently | > 24 | 0.0103 | not as efficacious as SA-9 | no cytotoxicity | fold more potent than SA-2 in superoxide scavenging ([2]; 1 mM, buffer, 15 min after pyrogallol): 2.5 fold; superoxide scavenging ability (ratio) (NTM-5 cells [3]; 10 µM for 18 h, NTM-5 cells insulted with TBHP, TBHP alone 2.5%): 20–25%; fold prevention of the decrease in superoxide scavenging ability vs TBHP alone (NTM-5 cells [3]; 10 µM for 18 h, TBHP-treated NTM-5 cells): ~ 10 fold; fold more potent than lipoic acid in HOCl scavenging ([9]; 0.1 µM vs. 1 mM lipoic acid, 30 min): 10,000 fold; duration of HOCl scavenging effect ([9]; 0.1 µM–1000 µM in buffer): > 1 h; NO release in buffer [10]: did not observe any NO release |
| [NH-]c1c[n+](N2CCOCC2)no1 [SIN-1, linsidomine, reference compound] | – | – | – | – | – | – | – | – | – | significantly higher level | – | duration of IOP reduction (intraocular pressure [11]): up to 3 h |
| CCOC(=O)[N-]c1cn(N2CCOCC2)n[o+]1 [Molsidomine, molsidomine] | – | – | – | – | – | – | – | – | – | – | – | NO release profile or IOP lowering activity (intraocular pressure [12]): no NO release profile or IOP lowering activity |

From PMC8068288, “Novel Thiol Containing Hybrid Antioxidant-Nitric Oxide Donor Small Molecules for Treatment of Glaucoma” (Antioxidants, 2021)
